The term IC50 denotes the midpoint of a concentration-inhibition curve.

The values below come from patent US20230102554A1 (GB002, INC., priority 2019, published 2023).

Assay [1] deals with T1, Human PDGFRα, cytoplasmic domain (GST-PDGFRα) (Homo sapiens, UniProt P16234).
T1 construct: made in house
In words: Human PDGFRα biochemical inhibition assay (off-chip Mobility Shift Assay).

The target in assay [2] is T2, Human PDGFRβ, cytoplasmic domain (GST-PDGFRβ) (Homo sapiens, UniProt P09619).
T2 construct: made in house
T2 sequence (P09619 with tags, fused parts or gaps): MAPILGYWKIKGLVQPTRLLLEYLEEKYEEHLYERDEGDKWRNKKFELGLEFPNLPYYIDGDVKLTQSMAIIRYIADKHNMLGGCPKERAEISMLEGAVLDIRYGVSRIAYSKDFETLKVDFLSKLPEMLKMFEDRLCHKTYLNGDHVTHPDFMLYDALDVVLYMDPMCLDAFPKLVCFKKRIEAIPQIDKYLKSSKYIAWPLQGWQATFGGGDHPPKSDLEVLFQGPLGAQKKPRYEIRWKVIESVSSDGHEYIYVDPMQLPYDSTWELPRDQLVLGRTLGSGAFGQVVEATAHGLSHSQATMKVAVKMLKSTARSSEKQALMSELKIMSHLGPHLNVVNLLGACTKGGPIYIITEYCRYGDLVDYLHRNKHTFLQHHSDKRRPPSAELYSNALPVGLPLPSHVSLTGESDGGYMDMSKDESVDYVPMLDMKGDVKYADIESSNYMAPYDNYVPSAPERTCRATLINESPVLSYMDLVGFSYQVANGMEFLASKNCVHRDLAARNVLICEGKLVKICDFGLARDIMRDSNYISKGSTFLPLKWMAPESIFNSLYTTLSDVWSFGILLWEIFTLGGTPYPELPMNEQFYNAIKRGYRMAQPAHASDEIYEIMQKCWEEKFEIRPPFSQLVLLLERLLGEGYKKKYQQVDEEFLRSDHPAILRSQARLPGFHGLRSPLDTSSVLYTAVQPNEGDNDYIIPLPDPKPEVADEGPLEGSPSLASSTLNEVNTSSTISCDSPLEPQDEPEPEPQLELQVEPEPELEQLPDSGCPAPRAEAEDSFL
In words: Human PDGFRβ biochemical inhibition assay (off-chip Mobility Shift Assay). An outline of the steps: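 GST-tagged cytoplasmic domain (aa 557-1106) from baculovirus was incubated 1 h at room temperature with compound, CSKtide, ATP at Km and Mg²⁺ in HEPES buffer, pH 7.5. Phosphorylated and unphosphorylated peptide were separated by off-chip mobility shift, and the product ratio P/(P+S) gave percent inhibition.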

T1 sequence (P16234 550-1089 T674I): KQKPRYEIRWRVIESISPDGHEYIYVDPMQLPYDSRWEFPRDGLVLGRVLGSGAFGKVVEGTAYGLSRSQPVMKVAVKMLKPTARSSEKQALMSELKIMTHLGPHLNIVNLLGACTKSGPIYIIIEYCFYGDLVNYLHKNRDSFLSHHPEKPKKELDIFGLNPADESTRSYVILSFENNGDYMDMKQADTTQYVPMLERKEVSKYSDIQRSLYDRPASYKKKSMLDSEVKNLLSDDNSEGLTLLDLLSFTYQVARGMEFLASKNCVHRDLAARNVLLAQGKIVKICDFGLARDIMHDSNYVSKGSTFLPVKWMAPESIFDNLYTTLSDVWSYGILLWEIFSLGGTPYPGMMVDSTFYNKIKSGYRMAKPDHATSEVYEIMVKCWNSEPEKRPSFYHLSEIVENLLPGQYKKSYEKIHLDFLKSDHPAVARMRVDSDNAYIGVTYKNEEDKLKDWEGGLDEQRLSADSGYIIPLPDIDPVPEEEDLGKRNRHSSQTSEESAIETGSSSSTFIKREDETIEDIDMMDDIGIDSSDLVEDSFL

Turning to `Cc1c[nH]c2ncc(N[C@@H](C)c3cccc(NC(=O)c4cc(C(F)(F)F)nn4C)c3)nc12` [Compound 562, (S)-1-methyl-N-(3-(1-((7-methyl-5H-pyrrolo[2,3-b]pyrazin-2-yl)amino)ethyl)phenyl)-3-(trifluoromethyl)-1H-pyrazole-5-carboxamide], the IC50 in assay [1] is below 300 nM; in assay [2] it was 300 to 1000 nM.

Take `CCn1cc2ncc(N[C@@H](C)c3cccc(NC(=O)Cc4ccccn4)c3)nc2n1` [Compound 645, (S)-N-(3-(1-((2-ethyl-2H-pyrazolo[3,4-b]pyrazin-6-yl)amino)ethyl)phenyl)-2-(pyridin-2-yl)acetamide]: the IC50 was 300 to 1000 nM in assay [1] and at least 1000 nM in assay [2].

Consider `CCn1cc2ncc(N[C@@H](C)c3cc(NC(=O)c4ccc(OC5CCN(C)CC5)c(Cl)c4)ccc3F)nc2n1` [Compound 430, (S)-3-chloro-N-(3-(1-((2-ethyl-2H-pyrazolo[3,4-b]pyrazin-6-yl)amino)ethyl)-4-fluorophenyl)-4-((1-methylpiperidin-4-yl)oxy)benzamide], for which the IC50 in assay [1] and in assay [2] was below 300 nM throughout.

As to `CCn1cc2ncc(N[C@@H](C)c3cc(NC(=O)Cc4cc(C)c(Cl)cn4)ccc3C)nc2n1` [Compound 696, (S)-2-(5-chloro-4-methylpyridin-2-yl)-N-(3-(1-((2-ethyl-2H-pyrazolo[3,4-b]pyrazin-6-yl)amino)ethyl)-4-methylphenyl)acetamide], the IC50 in assay [1] and in assay [2] was below 300 nM in each case.

Take `CCc1ncc(C(=O)Nc2cccc([C@H](C)Nc3cnc4cnn(C)c4n3)c2)cc1C` [Compound 233, (S)-6-ethyl-5-methyl-N-(3-(1-((1-methyl-1H-pyrazolo[3,4-b]pyrazin-6-yl)amino)ethyl)phenyl)nicotinamide]: the IC50 in assay [1] and in assay [2] was below 300 nM each time.

For the compound `CCn1cc2ncc(N[C@@H](C)c3cccc(NC(=O)c4ccc(N5CCOCC5)c(Cl)c4)c3)nc2n1` [Compound 360, (S)-3-chloro-N-(3-(1-((2-ethyl-2H-pyrazolo[3,4-b]pyrazin-6-yl)amino)ethyl)phenyl)-4-morpholinobenzamide], the IC50 in assay [1] and in assay [2] was below 300 nM in each case.

As for `CCn1cc2ncc(N[C@@H](C)c3cccc(NC(=O)c4cnc(C)c(F)c4)c3)nc2n1` [Compound 419, (S)-N-(3-(1-((2-ethyl-2H-pyrazolo[3,4-b]pyrazin-6-yl)amino)ethyl)phenyl)-5-fluoro-6-methylnicotinamide], the 50% inhibitory concentration (IC50) is below 300 nM in assay [1] and 300 to 1000 nM in assay [2].

For the compound `CCn1cc2ncc(N[C@@H](C)c3cccc(NC(=O)c4ccc(CN5CCN(C)CC5)cc4)c3)nc2n1` [Compound 376, (S)-N-(3-(1-((2-ethyl-2H-pyrazolo[3,4-b]pyrazin-6-yl)amino)ethyl)phenyl)-4-((4-methylpiperazin-1-yl)methyl) benzamide], the half-maximal inhibitory concentration (IC50) in assay [1] and in assay [2] was below 300 nM each time.

Regarding `Cc1n[nH]c2ncc(N[C@@H](C)c3cccc(NC(=O)c4cncc(C(F)F)c4)c3)nc12` [Compound 532, (S)-5-(difluoromethyl)-N-(3-(1-((3-methyl-1H-pyrazolo[3,4-b]pyrazin-5-yl)amino)ethyl)phenyl)nicotinamide], the 50% inhibitory concentration (IC50) in assay [1] and in assay [2] was below 300 nM throughout.

In the case of `Cc1cncc(C(=O)Nc2cccc([C@H](C)Nc3cnc4ccccc4c3)c2)c1` [Compound 2, (S)-5-methyl-N-(3-(1-(quinolin-3-ylamino)ethyl)phenyl)nicotinamide], the half-inhibitory concentration (IC50) in assay [1] was below 300 nM; in assay [2] it was 300 to 1000 nM.

As to `CCc1ccc(CC(=O)Nc2ccc(C)c([C@H](C)Nc3cnc4cn(CC)nc4n3)c2)nc1` [Compound 713, (S)-N-(3-(1-((2-ethyl-2H-pyrazolo[3,4-b]pyrazin-6-yl)amino)ethyl)-4-methylphenyl)-2-(5-ethylpyridin-2-yl) acetamide], the IC50 in assay [1] is below 300 nM; in assay [2] it was 300 to 1000 nM.
